Series [1] concerns Hepatitis C virus. The series is described as follows: Antiviral activity against Hepatitis C virus infected in […] after 72 hrs by luciferase reporter gene assay. The format is functional, organism-based, Hepacivirus hominis. To be noted: OR6, 72 h. On the technique in general: Reporter assays use an easily measured gene product as a stand-in for the process of interest.
The nature of series [2]: Selectivity index, ratio of CC50 for human ORL8 cells to EC50 for Hepatitis C virus infected in […]. The format is toxicity, cell-based. The settings on record: read-out: Ratio CC50/EC50.
The nature of series [3]: Cytotoxicity against human ORL8 cells after 72 hrs by WST-1 assay. The series is classed as cell-based. A general note: Tetrazolium dyes change colour on reduction, which living cells bring about.
Series [4] concerns Vesicular stomatitis virus. Put plainly: Antimicrobial activity against Vesicular stomatitis virus. The format is functional, organism-based.
Another series deals with Herpesviridae sp. The series is described as follows: Antimicrobial activity against Herpes simplex virus. The format is functional, organism-based.
Another series has as its system Human betaherpesvirus 5. Put plainly: Antimicrobial activity against Human cytomegalovirus. The series is classed as functional, organism-based.
In another series the test system is Cancer cell lines. The series is described as follows: Cytotoxicity against human cervical cancer cells. The format is functional, cell-based.
The test system of another series is Human alphaherpesvirus 3. The series is described as follows: Antimicrobial activity against Varicella-zoster virus. The format is functional, organism-based.
In another series the test system is Leukemia cell. Put plainly: Cytotoxicity against mouse leukemia cells. The series is classed as functional, cell-based.
Series [5] has as its system Hepatitis C virus. The series is described as follows: Antiviral activity against Hepatitis C virus infected in mouse HB-1 cells after 24 hrs by ribonuclease replicon assay. The format is functional, organism-based, Hepacivirus hominis. To be noted: HB1, 24 h. (In general: In antiviral work, replicon cells carry a viral genome segment that copies itself.)

Structures are written as SMILES. Calls of active or inactive are those of the source. The calls are words filed in the database; no cut-off is given here. Where only a bound is given, the exact number is not on record here.

Regarding `Nc1ccn([C@@H]2O[C@](F)(CO)[C@H](F)[C@H]2O)c(=O)n1`, the EC50 with Hepatitis C virus [1] was greater than 100 µM. Moreover, the selectivity ratio in [2] is less than 0.36. This molecule also displayed a CC50 at 72 h in [3] of 36 µM.
For `Nc1ccn([C@@H]2O[C@](F)(CO)[C@@H](F)[C@H]2O)c(=O)n1`, in that order: greater than 50 µM, less than 1 and greater than 50 µM.
In the same order, the values of `Nc1ccn([C@@H]2O[C@@](F)(CO)[C@H](F)[C@H]2O)c(=O)n1` are greater than 100 µM, less than 0.23 and 23 µM.
As to `Nc1ncnc2c1ncn2[C@@H]1O[C@@](F)(CO)[C@@H](F)[C@@H]1O`, in the series on Hepatitis C virus [1], the EC50 is greater than 200 µM. The result (in series [4]; in the series on Herpesviridae sp.; in the series with Human betaherpesvirus 5; in the series with Human alphaherpesvirus 3) was inactive. Also, the inhibition result with Cancer cell lines and in the series with Leukemia cell was “inactive” throughout. Moreover, the selectivity ratio in series [2] is greater than 1. For the same molecule, in series [3], the CC50 at 72 h was greater than 200 µM.
As for `Nc1ncnc2c1ncn2[C@@H]1O[C@](F)(CO)[C@@H](F)[C@H]1O`, the EC50 in the series on Hepatitis C virus [1] amounted to 4.7 µM. In addition, the result (in [4]; in the series with Herpesviridae sp.; with Human betaherpesvirus 5; with Human alphaherpesvirus 3) was inactive. In addition, the inhibition entry in the series on Cancer cell lines and in the series on Leukemia cell was “inactive” each time. In series [2], the selectivity ratio stood at 19. In addition, in [3], the CC50 at 72 h amounted to 90 µM.
Molecule `Nc1ncnc2c1ncn2[C@@H]1O[C@H](CO)C[C@H]1O` [CORDYCEPIN] came in with an EC50 in the series on Hepatitis C virus [1] of 70 µM. In series [2], the selectivity ratio was 0.19. The molecule further yielded a CC50 at 72 h in series [3] of 13 µM.
On to `Nc1ncnc2c1ncn2[C@@H]1O[C@H](CO)[C@@H](F)[C@H]1O`, for which the EC50 in the series with Hepatitis C virus [5] was 1.2 µM. That is a single-digit micromolar value.
In the series on Hepatitis C virus [1], `NC(=O)c1ncn([C@@H]2O[C@H](CO)[C@@H](O)[C@H]2O)n1` [RIBAVIRIN] gave an EC50 of 5.6 µM. The selectivity ratio in [2] turned out to be 18. Also, in [3], the CC50 at 72 h was found to be 100 µM.
For `Nc1ncnc2c1ncn2[C@@H]1O[C@@](F)(CO)[C@H](F)[C@H]1O`, in the series with Hepatitis C virus [1], the EC50 is greater than 100 µM. Besides, the outcome (in [4]; in the series on Herpesviridae sp.; in the series with Human betaherpesvirus 5; in the series on Human alphaherpesvirus 3) was inactive. Moreover, the inhibition entry with Cancer cell lines and in the series with Leukemia cell was “inactive” throughout. The selectivity ratio in [2] was greater than 1. Also, the CC50 at 72 h in series [3] is greater than 100 µM.
In the series with Hepatitis C virus [1], `Nc1ncnc2c1ncn2[C@@H]1O[C@](F)(CO)[C@H](F)[C@H]1O` showed an EC50 greater than 200 µM. The outcome (in series [4]; in the series with Herpesviridae sp.; in the series with Human betaherpesvirus 5; with Human alphaherpesvirus 3) was inactive. The inhibition result in the series on Cancer cell lines and in the series with Leukemia cell was “inactive” in each case. Moreover, in [2], the selectivity ratio is greater than 1. Moreover, the CC50 at 72 h in series [3] is greater than 200 µM.
`CC(C)OC(=O)[C@H](C)N[P@](=O)(OC[C@H]1O[C@@H](n2ccc(=O)[nH]c2=O)[C@](C)(F)[C@@H]1O)Oc1ccccc1` [SOFOSBUVIR] came in with an EC50 in the series with Hepatitis C virus [1] of 0.14 µM. Also, in [2], the selectivity ratio is greater than 36. In [3], this molecule returned a CC50 at 72 h greater than 5 µM.

The EC50 is the concentration at which the effect is half-maximal. Read a low EC50 as a more potent agent. By CC50 is commonly meant the concentration at which the toxic effect on the cells reaches its halfway point. A high value points to better tolerance by the cells.

Source of the values: ChEMBL document CHEMBL3352698, “Synthesis of 3',4'-difluoro-3'-deoxyribonucleosides and its evaluation of the biological activities: discovery of a novel type of anti-HCV agent 3',4'-difluorocordycepin” (Bioorg Med Chem, 2014).
